According to patent US20220354836A1, “Equine Esomeprazole Formulations and Methods of Use” (priority 2019, published 2022):
“Also recorded” adds a separate entry of the source.

Columns and labels:
[1] = Pharmacokinetics after multiple intramuscular doses to horses
Protocol: Eighteen adult horses were randomized into three equal treatment groups and assigned one of three doses: 2 mg/kg (1×), 6 mg/kg (3×), or 10 mg/kg (5×). Doses were administered intramuscularly. Each horse received the assigned dose three times, seven days apart. Blood samples were collected at 1, 2, 4, 6, 8, 12, 24, 36, 48, 72, 96, 120, 144 hrs after each dosing, then every 48 hours until Day 28. Esomeprazole was quantified by LC-MS/MS. Data were subjected to noncompartmental analysis.

[2] = Particle size distribution (Malvern MASTERSIZER 2000); format: physicochemical; conditions: sterilized drug substance from Shouguang Fukang Pharma Co.; average of three measurements
Protocol: Particle size distribution may be measured, for example, using a Malvern MASTERSIZER 2000 instrument. After 24 hours storage, a particle size distribution (PSD) was performed using a Malvern MASTERSIZER 2000. The measuring range of the instrument is 0.02-2000 μm, with refractive index dispersant 1.375—hexanes, obscuration range 5-20%, sample/background measurement time=1, 5000 sample/background measurement snaps, and manual stirring speed 2000 rpm.

For `COc1ccc2nc([S@@+]([O-])Cc3ncc(C)c(OC)c3C)[nH]c2c1` [esomeprazole], the “Dose normalization of Cmax and area under the curve (kinetic linearity)” value ([1]; across 2, 6 and 10 mg/kg intramuscular) was “linear pharmacokinetics; also recorded: Linear kinetic properties were observed”, the “Time for which drug was detectable” value ([1]; after the final dose in the 5× group (10 mg/kg intramuscular)) was 96 ± 26.29 h and the Mean half-life ([1]; horse, in vivo, im, 10 mg/kg) was 12 to 24 h. For the same compound, the half-life ([1]; horse, in vivo, im, 10 mg/kg, Mean half-life) was 11.6 to 24.5 h, the Tolerability ([1]; in vivo) was “well tolerated” and the “Absorption from the injection site” value ([1]; intramuscular, horses) was “rapidly absorbed”. The Injection site reaction ([1]; one horse in the 3× group (6 mg/kg intramuscular)) was “A single mild, self-resolving, injection site reaction”.
Work on `COc1ccc2[n-]c([S@@+]([O-])Cc3ncc(C)c(OC)c3C)nc2c1.COc1ccc2[n-]c([S@@+]([O-])Cc3ncc(C)c(OC)c3C)nc2c1.O.O.[Mg+2]` [esomeprazole magnesium dihydrate] yielded a Median particle size [2] of 2.01 μm.
With `COc1ccc2nc([S@@+]([O-])Cc3ncc(C)c(OC)c3C)[nH]c2c1` [esomeprazole sodium] the Median particle size [2] was 18.84 μm.
